This is an account of results in patent US5763430A, “Method of treating a viral infection by administering a steroid compound” (priority 1995, dated 1998).

The structures appear in SMILES notation. ≈ marks a conversion by molar mass, not a printed value. Read-outs that look alike come from different tables or passages of the source.

One experiment deals with C. albicans. In words: antibiotic activity (MIC). It counts as cell-based. To be noted: Candida albicans. The source says:
(§1) Thus, it is possible to achieve an antimicrobial steroid with or without squalamine-like pharmacological activity.

The subject of a further experiment is E. coli. The experiment can be described thus: antibiotic activity (MIC). It counts as cell-based. To be noted: Escherichia coli; E. coli; read-out: MIC.
Excerpt: as §1

Another experiment deals with P. aerug. The experiment can be described thus: antibiotic activity (MIC). The experiment is classed as cell-based.
Excerpt: as §1

The next experiment concerns S. aureus. In words: antibiotic activity (MIC). To be noted: Staphylococcus aureus; S. aureus; read-out: MIC. It counts as cell-based.
Excerpt: as §1

The test system of experiment [1] is stage 59-60 Xenopus tadpole. The experiment can be described thus: Xenopus tadpole assay. To be noted: in vivo.
In experiment [2] the test system is human microvascular cells. In words: inhibition of endothelial cell cord formation in vitro. As to effect on endothelial cord formation: key: +: Inhibition of angiogenesis; -: No inhibition of angiogenesis; Toxic; *: cell rounding @ 10 µg/ml. The experiment is classed as cell-based. An excerpt: Endothelial cells have the capacity in vitro to form tubular aggregates resembling capillaries in various early stages of formation. This conversion occurs under relatively specific conditions, in which essential growth factors along with an effective substratum are provided. It has been shown that both the interaction of growth factors with the endothelial cell and its attachment to a substratum activate the NHE. The activation of this exchanger is believed to be required for subsequent morphologic transformation of the endothelial cell into a multicellular tubular structure.
To assess the effect of compounds on the cord-like structures formed by human microvascular cells when plated in the presence of VEGF (Vascular Endothelial Growth Factor) and basic fibroblast growth factor on a collagen matrix, a standard cord formation assay was used.

The term MIC denotes the smallest concentration in the dilution series that meets the test's criterion for growth inhibition. For `C=C(C)C(=O)CC[C@@H](C)[C@H]1CC[C@H]2[C@@H]3[C@H](O)C[C@H]4C[C@@H](NCCCNCCCCN)CC[C@]4(C)[C@H]3CC[C@]12C` [Compound 1361], the MIC was found to be 4 µg/mL (≈ 7.35 µM) in the experiment with C. albicans (C. albicans, read-out: MIC); 32 µg/mL (≈ 58.8 µM) in the experiment with E. coli; 128 µg/mL (≈ 235 µM) with P. aerug (P. aerug, read-out: MIC); 4 µg/mL (≈ 7.35 µM) in the experiment on S. aureus.

With `C[C@H](CCC(=O)O)[C@H]1CC[C@H]2[C@@H]3CC[C@@H]4C[C@H](NCCN)CC[C@]4(C)[C@H]3C[C@H](O)[C@]12C` [Compound 417], the minimum inhibitory concentration (MIC) was 32 µg/mL (≈ 73.6 µM) with C. albicans (C. albicans, read-out: MIC); 64 µg/mL (≈ 147 µM) with E. coli; 128 µg/mL (≈ 294 µM) in the experiment on P. aerug (P. aerug, read-out: MIC); 16 to 32 µg/mL (≈ 36.8 to 73.6 µM) in the experiment with S. aureus.

Consider `C[C@H](CCC(=O)O)[C@H]1CC[C@H]2[C@@H]3[C@H](O)C[C@H]4C[C@H](NCCCNCCCCN)CC[C@]4(C)[C@H]3CC[C@]12C` [Compound 382], for which the MIC in the experiment with C. albicans (C. albicans, read-out: MIC) was found to be 32 µg/mL (≈ 61.6 µM); in the experiment with E. coli, 64 µg/mL (≈ 123 µM); in the experiment with P. aerug (P. aerug, read-out: MIC), 32 µg/mL (≈ 61.6 µM); with S. aureus, 16 µg/mL (≈ 30.8 µM).

`CC(C)CCC[C@@H](C)[C@H]1CC[C@H]2[C@@H]3CC[C@H]4C[C@H](NCCCNCCCCN)CC[C@]4(C)[C@H]3CC[C@]12C` [Compound 304]: the MIC in the experiment with C. albicans (C. albicans, read-out: MIC) is 128 µg/mL (≈ 248 µM); with E. coli it was 128 µg/mL (≈ 248 µM); in the experiment on P. aerug (P. aerug, read-out: MIC), 128 µg/mL (≈ 248 µM); in the experiment on S. aureus, 2 to 4 µg/mL (≈ 3.88 to 7.75 µM).

With `CC(C)C(O)CC[C@@H](C)[C@H]1CC[C@H]2[C@@H]3[C@H](O)C[C@H]4C[C@@H](NCCCNCCCCN)CC[C@]4(C)[C@H]3CC[C@]12C` (stereo partly drawn) [MSI-1232], the MIC was 64 µg/mL (≈ 117 µM) in the experiment on C. albicans (C. albicans, read-out: MIC); 32 µg/mL (≈ 58.4 µM) with E. coli; 128 µg/mL (≈ 234 µM) in the experiment with P. aerug (P. aerug, read-out: MIC); 4 to 16 µg/mL (≈ 7.3 to 29.2 µM) in the experiment on S. aureus.

Take `COC(=O)CC[C@@H](C)[C@H]1CC[C@H]2[C@@H]3C[C@@H](O)[C@H]4C[C@@H](NCCCNCCCCNCCCN)CC[C@]4(C)[C@H]3CC[C@]12C` [Compound 466]: the minimal inhibitory concentration (MIC) was found to be 2 µg/mL (≈ 3.38 µM) with C. albicans (C. albicans, read-out: MIC); 32 µg/mL (≈ 54.2 µM) in the experiment on E. coli; 32 µg/mL (≈ 54.2 µM) in the experiment with P. aerug (P. aerug, read-out: MIC); 2 µg/mL (≈ 3.38 µM) in the experiment with S. aureus. Besides, the “similarity of pharmacologic activity in tadpole assay” value in experiment [1] is given as “pharmacologic activity similar to that seen for FX 3”.

Consider `CC(C)CCC[C@@H](C)[C@H]1CC[C@H]2[C@@H]3[C@H](O)C[C@H]4C[C@@H](N)CC[C@]4(C)[C@H]3CC[C@]12C` [Compound 1364], for which the MIC in the experiment with C. albicans (C. albicans, read-out: MIC) is 2 µg/mL (≈ 4.95 µM); in the experiment with E. coli, over 256 µg/mL; in the experiment with P. aerug (P. aerug, read-out: MIC), over 256 µg/mL; in the experiment with S. aureus it was 2 µg/mL (≈ 4.95 µM).

Consider `C[C@H](CCC(=O)O)[C@H]1CC[C@H]2[C@@H]3[C@H](O)C[C@H]4C[C@@H](NCCCNCCCCNCCCN)CC[C@]4(C)[C@H]3CC[C@]12C` [Compound 397], for which the minimal inhibitory concentration (MIC) in the experiment on C. albicans (C. albicans, read-out: MIC) was 32 µg/mL (≈ 55.5 µM); in the experiment with E. coli, 32 to 64 µg/mL (≈ 55.5 to 111 µM); in the experiment with P. aerug (P. aerug, read-out: MIC), 16 µg/mL (≈ 27.7 µM); in the experiment with S. aureus, 16 µg/mL (≈ 27.7 µM).

Take `COC(=O)CC[C@@H](C)[C@H]1CC[C@H]2[C@@H]3[C@H](O)C[C@H]4C[C@H](NCCCNCCCCN)CC[C@]4(C)[C@H]3CC[C@]12C` [Compound 394]: the MIC in the experiment on C. albicans (C. albicans, read-out: MIC) came out at 32 µg/mL (≈ 59.9 µM); in the experiment with E. coli it was 64 µg/mL (≈ 120 µM); in the experiment on P. aerug (P. aerug, read-out: MIC) it was 64 µg/mL (≈ 120 µM); with S. aureus it was 4 µg/mL (≈ 7.49 µM).

On to `CC(C)C(O)CC[C@@H](C)[C@H]1CC[C@H]2[C@@H]3[C@H](O)C[C@H]4C[C@@H](NCCCNCCCCN(C)C)CC[C@]4(C)[C@H]3CC[C@]12C` (stereo partly drawn) [MSI-1239A], for which the MIC in the experiment on C. albicans is 64 µg/mL (≈ 111 µM); in the experiment with E. coli, 64 µg/mL (≈ 111 µM); against P. aerug it was 128 µg/mL (≈ 222 µM); in the experiment with S. aureus, 8 to 16 µg/mL (≈ 13.9 to 27.8 µM).

Turning to `COC(=O)CC[C@@H](C)[C@H]1CC[C@H]2[C@@H]3[C@H](O)C[C@H]4C[C@@H](NCCCNCCCCNCCCN)CC[C@]4(C)[C@H]3CC[C@]12C` [Compound 396], the MIC in the experiment on C. albicans (C. albicans, read-out: MIC) is 16 µg/mL (≈ 27.1 µM); in the experiment with E. coli it was 64 µg/mL (≈ 108 µM); in the experiment with P. aerug (P. aerug, read-out: MIC), 128 µg/mL (≈ 217 µM); in the experiment on S. aureus, 2 to 4 µg/mL (≈ 3.38 to 6.77 µM).

On to `CC(C)CCC[C@@H](C)[C@H]1CC[C@H]2[C@@H]3CC[C@H]4C[C@H](NCCCNCCCCNCCCN)CC[C@]4(C)[C@H]3CC[C@]12C` [Compound 354], for which the minimum inhibitory concentration (MIC) was 16 to 32 µg/mL (≈ 27.9 to 55.8 µM) in the experiment on C. albicans (C. albicans, read-out: MIC); 64 to 128 µg/mL (≈ 112 to 223 µM) in the experiment on E. coli; 64 µg/mL (≈ 112 µM) with P. aerug (P. aerug, read-out: MIC); 8 µg/mL (≈ 14 µM) in the experiment with S. aureus.

Regarding `COC(=O)CC[C@@H](C)[C@H]1CC[C@H]2[C@@H]3[C@H](O)C[C@@H]4C[C@@H](NCCCNCCCCNCCCN)CC[C@]4(C)[C@H]3CC[C@]12C` [Compound 411], the “effect on endothelial cord formation” value in experiment [2] (0.1 μg/ml) was “-”; in experiment [2] (1.0 μg/ml) it was “-”; in experiment [2] (10.0 μg/ml) it was “+”. In experiment [2] (Homo sapiens, Endothelial cell, Table II, read-out: Minimum Effective Concentration, Cord Formation), the minimal effective concentration amounted to 10 µg/mL. Further, the MIC in the experiment on C. albicans (C. albicans, read-out: MIC) is 2 µg/mL (≈ 3.38 µM); in the experiment with E. coli, 64 µg/mL (≈ 108 µM); with P. aerug (P. aerug, read-out: MIC), 64 µg/mL (≈ 108 µM); in the experiment with S. aureus, 8 µg/mL (≈ 13.5 µM).
